Assay results as given in patent US11040954B1, “CXCR3 receptor agonists” (RECEPTOS LLC, priority 2016, dated 2021).

target: T1, CXCR3 (Homo sapiens, UniProt P49682); assay: CXCR3 cAMP agonist assay (cAMP Hunter CHOK1 CXCR3 Gi cell line, forskolin-stimulated, HitHunter cAMP detection); type: cell-based; conditions: cAMP Hunter CHOK1 CXCR3 Gi cells, 20 μM forskolin, 30 minutes; read-out: Activity (CXCR3 cAMP agonist assay compound EC50)
T1 construct: host or cells: CHO-K1 (cAMP Hunter CHOK1 CXCR3 Gi cell line)
T1 sequence (P49682 1-368): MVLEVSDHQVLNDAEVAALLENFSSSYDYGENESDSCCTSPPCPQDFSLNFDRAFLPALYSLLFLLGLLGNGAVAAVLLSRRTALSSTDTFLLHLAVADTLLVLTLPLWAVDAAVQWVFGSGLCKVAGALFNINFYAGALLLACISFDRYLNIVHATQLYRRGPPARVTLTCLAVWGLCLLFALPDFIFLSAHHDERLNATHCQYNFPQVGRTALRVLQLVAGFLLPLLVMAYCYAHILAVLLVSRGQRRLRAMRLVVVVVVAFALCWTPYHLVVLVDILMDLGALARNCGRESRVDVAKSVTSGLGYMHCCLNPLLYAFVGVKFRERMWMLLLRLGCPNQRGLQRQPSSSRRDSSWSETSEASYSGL
In short: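 CHOK1 cells expressing human CXCR3 with Gi coupling, 50,000/well in suspension in HBSS/10 mM HEPES/0.1% BSA pH 7.4, were co-treated with 20 μM forskolin and compound (12-point, 0-10 μM, 1% DMSO) for 30 min. cAMP was read by enzyme-complementation luminescence; CXCL11 dose response set maximum efficacy.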

Row | Compound | EC50
1 | NCCCC[C@H](NC(=O)[C@@H]1Cc2ccccc2CN1C(=O)CCC(=O)c1ccccc1)C(=O)Nc1ccc(F)c(F)c1 [Compound 1-21] | > 0.5 µM
2 | Cc1cc(NC(=O)[C@H](Cc2cncs2)NC(=O)[C@@H]2Cc3ccccc3CN2C(=O)CCC(=O)c2ccccc2)ccc1Cl [Compound 5-3] | 0.05 to 0.25 µM
3 | Cc1cc(NC(=O)[C@H](CCN)NC(=O)[C@@H]2Cc3ccccc3CN2C(=O)CCC(=O)N2CCCC2C(C)C)ccc1Cl (stereo partly drawn) [Compound 12-71] | < 0.05 µM
4 | Cc1cc(NC(=O)[C@H](CCN)NC(=O)[C@@H]2Cc3ccccc3CN2C(=O)CCC(=O)N2CCC3(CC3)C2)ccc1Cl [Compound 12-69] | < 0.05 µM
5 | Cc1cc(NC(=O)[C@H](CCN)NC(=O)[C@@H]2Cc3ccccc3CN2C(=O)CCC(=O)N2CCCCC23CCC3)ccc1Cl [Compound 12-72] | < 0.05 µM
6 | CN1CCN(C(=O)CCC(=O)N2Cc3ccccc3C[C@H]2C(=O)N[C@@H](CCN)C(=O)Nc2ccc(Cl)c(Cl)c2F)CC1 [Compound 10-4] | < 0.05 µM
7 | NCC[C@H](NC(=O)[C@@H]1Cc2ccccc2CN1C(=O)CCC(=O)c1ccccc1)C(=O)NC1CCc2ccccc2C1 (stereo partly drawn) [Compound 2-81] | 0.05 to 0.25 µM
8 | NCCCC[C@H](NC(=O)[C@@H]1Cc2ccccc2CN1C(=O)CCC(=O)c1ccccc1)C(=O)Nc1ccc(-c2ccccc2)cc1 [Compound 1-5] | > 0.5 µM
9 | Cc1cc(NC(=O)[C@H](CCN)NC(=O)[C@@H]2Cc3ccccc3CN2C(=O)CCC(=O)N(C)CCC(C)(C)C)ccc1Cl [Compound 12-98] | < 0.05 µM
10 | Cc1cc(NC(=O)[C@H](CCN)NC(=O)[C@@H]2Cc3ccccc3CN2C(=O)CCC(=O)N2CCCC23CCC3)ccc1Cl [Compound 12-73] | < 0.05 µM
11 | CCc1c(C)cccc1NC(=O)[C@H](CCN)NC(=O)[C@@H]1Cc2ccccc2CN1C(=O)CCC(=O)c1ccccc1 [Compound 2-53] | 0.05 to 0.25 µM
12 | NCC[C@H](NC(=O)[C@@H]1Cc2ccccc2CN1C(=O)CCC(=O)c1ccccc1)C(=O)Nc1ccc2ncsc2c1 [Compound 2-65] | 0.05 to 0.25 µM
13 | NCCCC[C@H](NC(=O)[C@@H]1Cc2ccccc2CN1C(=O)CCC(=O)c1ccccc1)C(=O)Nc1cc(Cl)cc(Cl)c1 [Compound 1-17] | 0.05 to 0.25 µM
14 | COc1cc(F)c(C)cc1NC(=O)[C@H](CCN)NC(=O)[C@@H]1Cc2ccccc2CN1C(=O)CCC(=O)c1ccccc1 [Compound 2-60] | 0.05 to 0.25 µM
15 | Cc1cc(NC(=O)[C@H](CCN)NC(=O)[C@@H]2Cc3ccccc3CN2C(=O)CCC(=O)N2CCN(C)CC2)ccc1Cl [Compound 10-3] | < 0.05 µM
16 | Cc1cc(NC(=O)[C@H](CCN)NC(=O)[C@@H]2Cc3ccccc3CN2C(=O)CCC(=O)N2CC(C)C(C)C2)ccc1Cl (stereo partly drawn) [Compound 12-68] | < 0.05 µM
17 | Cc1cc(NC(=O)[C@H](CCN)NC(=O)[C@@H]2Cc3ccccc3CN2C(=O)CCC(=O)N2CCC[C@H]2C)ccc1Cl [Compound 12-46] | < 0.05 µM
18 | O=C(NC1(C(=O)Nc2ccc(Cl)c(Cl)c2F)CCNCC1)[C@@H]1Cc2ccccc2CN1C(=O)CCC(=O)N1CCCC2(CCC2)C1 [Compound 12-128] | < 0.05 µM
19 | Cc1cc(NC(=O)[C@H](CCN)NC(=O)[C@@H]2Cc3ccccc3CN2C(=O)CCC(=O)N2CCC(O)CC2)ccc1Cl [Compound 12-6] | 0.05 to 0.25 µM

Row | Compound | EC50
20 | NC(=O)NCCC[C@H](NC(=O)[C@@H]1Cc2ccccc2CN1C(=O)CCC(=O)c1ccccc1)C(=O)Nc1ccc(Cl)c(Cl)c1 [Compound 3-1, (S)—N—((S)-1-((3,4-dichlorophenyl)amino)-1-oxo-5-ureidopentan-2-yl)-2-(4-oxo-4-phenylbutanoyl)-1,2,3,4-tetrahydroisoquinoline-3-carboxamide] | 0.05 to 0.25 µM
21 | NCC[C@H](NC(=O)[C@@H]1Cc2ccccc2CN1C(=O)CCC(=O)c1ccccc1)C(=O)Nc1ccc2c(c1)C(=O)CC2 [Compound 2-68] | 0.05 to 0.25 µM
22 | Cc1cc(NC(=O)C2(NC(=O)[C@@H]3Cc4ccccc4CN3C(=O)CCC(=O)c3ccccc3)CCNCC2)c(Cl)cc1Cl [Compound 11-6] | < 0.05 µM
23 | Cc1cccc(NC(=O)[C@H](CCN)NC(=O)[C@@H]2Cc3ccccc3CN2C(=O)CCC(=O)c2ccccc2)c1O [Compound 2-50] | 0.25 to 0.5 µM
24 | COc1ccccc1NC(=O)[C@H](CCN)NC(=O)[C@@H]1Cc2ccccc2CN1C(=O)CCC(=O)c1ccccc1 [Compound 1-35] | 0.25 to 0.5 µM
25 | Cc1ccc(NC(=O)C2(NC(=O)[C@@H]3Cc4ccccc4CN3C(=O)CCC(=O)c3ccccc3)CCNCC2)c(F)c1 [Compound 13-2] | 0.05 to 0.25 µM
26 | Cc1cc(NC(=O)[C@H](CCN)NC(=O)[C@@H]2Cc3ccccc3CN2C(=O)CCC(=O)N2CCC(C(C)(C)C)C2)ccc1Cl (stereo partly drawn) [Compound 12-75] | < 0.05 µM
27 | Cc1cc(NC(=O)[C@H](CCN)NC(=O)[C@@H]2Cc3ccccc3CN2C(=O)CCC(=O)N2CCN(CC#N)CC2)ccc1Cl [Compound 12-117] | 0.05 to 0.25 µM
28 | Cc1cc(NC(=O)[C@H](CCN)NC(=O)[C@@H]2Cc3ccccc3CN2C(=O)CCC(=O)N2CCCC3(CCC3)C2)ccc1Cl [Compound 12-78] | < 0.05 µM
29 | CCC(C)(C)NC(=O)CCC(=O)N1Cc2ccccc2C[C@H]1C(=O)N[C@@H](CCN)C(=O)Nc1ccc(Cl)c(C)c1 [Compound 12-92] | 0.05 to 0.25 µM
30 | Cc1cc(NC(=O)[C@H](CCN)NC(=O)[C@@H]2Cc3ccccc3CN2C(=O)CCC(=O)N2CCCC(F)(F)C2)ccc1Cl [Compound 12-79] | < 0.05 µM
31 | Cc1cc(NC(=O)[C@H](CCN)NC(=O)[C@@H]2Cc3ccccc3CN2C(=O)CCC(=O)N2CCc3ccccc3C2)ccc1Cl [Compound 12-76] | < 0.05 µM
32 | Cc1cc(NC(=O)C(CC2CCNCC2)NC(=O)[C@@H]2Cc3ccccc3CN2C(=O)CCC(=O)c2ccccc2)ccc1Cl (mixture of isomers) [Compound 4-11] | 0.05 to 0.25 µM
33 | CC1(C)CCc2cc(NC(=O)[C@H](CCN)NC(=O)[C@@H]3Cc4ccccc4CN3C(=O)CCC(=O)c3ccccc3)ccc21 [Compound 2-72] | < 0.05 µM
34 | Cc1cc(NC(=O)[C@H](CCN)NC(=O)[C@@H]2Cc3ccccc3CN2C(=O)CCC(=O)NCC(C)(C)C)ccc1Cl [Compound 12-91] | < 0.05 µM
35 | Cc1cc(NC(=O)[C@H](CCN)NC(=O)[C@@H]2Cc3ccccc3CN2C(=O)CCC(=O)N2CCC(C)(C)CC2)cc(C)c1Cl [Compound 10-12] | < 0.05 µM
36 | Cc1ccc(Cl)c(NC(=O)[C@H](CCN)NC(=O)[C@@H]2Cc3ccccc3CN2C(=O)CCC(=O)c2ccccc2)c1 [Compound 2-35] | 0.05 to 0.25 µM
37 | Cc1cc(NC(=O)[C@H](CCN)NC(=O)[C@@H]2Cc3ccccc3CN2C(=O)CCC(=O)N2CCCC(C)(C)C2)ncc1Cl [Compound 12-155] | < 0.05 µM

More lines, now with the values ahead:

Row | EC50 | Compound
38 | < 0.05 µM | NCC[C@H](NC(=O)[C@@H]1Cc2ccccc2CN1C(=O)CCC(=O)N1CCC2(CCC2)C1)C(=O)Nc1ccc(Cl)c(Cl)c1F [Compound 15-33]
39 | 0.05 to 0.25 µM | Cc1cc(NC(=O)[C@H](CCN2CCC(O)CC2)NC(=O)[C@@H]2Cc3ccccc3CN2C(=O)CCC(=O)c2ccccc2)c(F)cc1Cl (racemic) [Compound 25-2]
40 | 0.25 to 0.5 µM | CC(=O)N1CCN(CC[C@H](NC(=O)[C@@H]2Cc3ccccc3CN2C(=O)CCC(=O)c2ccccc2)C(=O)Nc2ccc(Cl)c(C)c2)CC1 [Compound 19-1, (S)—N—((S)-4-(4-acetylpiperazin-1-yl)-1-((4-chloro-3-methylphenyl)amino)-1-oxobutan-2-yl)-2-(4-oxo-4-phenylbutanoyl)-1,2,3,4-tetrahydroisoquinoline-3-carboxamide]
41 | < 0.05 µM | CN(CC(C)(C)C)C(=O)CCC(=O)N1Cc2ccccc2C[C@H]1C(=O)N[C@@H](CCN)C(=O)Nc1ccc(Cl)c(Cl)c1F [Compound 15-43]
42 | 0.05 to 0.25 µM | CCC(CC)C1CCCCN1C(=O)CCC(=O)N1Cc2ccccc2C[C@H]1C(=O)N[C@@H](CCN)C(=O)Nc1ccc(Cl)c(Cl)c1F (stereo partly drawn) [Compound 15-23]
43 | 0.25 to 0.5 µM | NCC[C@H](NC(=O)[C@@H]1Cc2ccccc2CN1C(=O)CCC(=O)c1ccccc1)C(=O)Nc1cc(F)ccc1Cl [Compound 14-1, (S)—N—((S)-4-amino-1-((2-chloro-5-fluorophenyl)amino)-1-oxobutan-2-yl)-2-(4-oxo-4-phenylbutanoyl)-1,2,3,4-tetrahydroisoquinoline-3-carboxamide]
44 | 0.05 to 0.25 µM | NCC[C@H](NC(=O)[C@@H]1Cc2ccccc2CN1C(=O)CCC(=O)c1ccccc1)C(=O)Nc1cc(Cl)ccc1Cl [Compound 14-11]
45 | 0.05 to 0.25 µM | Cc1cc(NC(=O)[C@H](CCN2CCNC(=O)C2)NC(=O)[C@@H]2Cc3ccccc3CN2C(=O)CCC(=O)c2ccccc2)ccc1Cl [Compound 17-3]
46 | < 0.05 µM | C[C@H]1CN(C(=O)CCC(=O)N2Cc3ccccc3C[C@H]2C(=O)N[C@@H](CCN)C(=O)Nc2ccc(Cl)c(Cl)c2F)CCN1C [Compound 15-63]
47 | < 0.05 µM | CN(C(=O)CCC(=O)N1Cc2ccccc2C[C@H]1C(=O)N[C@@H](CCN)C(=O)Nc1ccc(Cl)c(Cl)c1F)C1CCCC1 [Compound 15-36]
48 | < 0.05 µM | Cc1c(F)cc(NC(=O)[C@H](CCN)NC(=O)[C@@H]2Cc3ccccc3CN2C(=O)CCC(=O)c2ccccc2)cc1F [Compound 27-5]
49 | < 0.05 µM | NCC[C@H](NC(=O)[C@@H]1Cc2ccccc2CN1C(=O)CCC(=O)N1CCC2CCCCC21)C(=O)Nc1ccc(Cl)c(Cl)c1F (stereo partly drawn) [Compound 15-38]
50 | 0.05 to 0.25 µM | Cc1cccc(NC(=O)[C@H](CCN)NC(=O)[C@@H]2Cc3ccccc3CN2C(=O)CCC(=O)c2ccccc2)c1C#N [Compound 14-19]
51 | < 0.05 µM | NCC[C@H](NC(=O)[C@@H]1Cc2ccc(F)cc2CN1C(=O)CCC(=O)N1CCCC2(CCC2)C1)C(=O)Nc1ccc(Cl)c(Cl)c1F [Compound 15-58]
